Test system: psoriasis affected scalp area
Assay: Phenylephrine applied on psoriasis affected scalp area
Assay type: in vivo, human
Conditions: topical, inventor
Description: From above it is clear that by reducing the body water loss i.e. by vasoconstriction we can control the psoriasis. To check this theory inventor has applied Phenylephrine which is used for nasal decongestant, on psoriasis affected scalp area. Phenylephrine is an Adrenergic Agent that mimics the sympathetic neurotransmitter norepinephrine (NE). […] This worked by way of reducing water loss of psoriatic skin by vasoconstriction.

CNC[C@H](O)c1cccc(O)c1 [Phenylephrine]
Response of psoriatic skin: lesions reduced

From patent US20050170020A1, “Using organic and / or inorganic potassium and its salts to treat autoimmune and other health disorders and methods of administering the same” (priority 2003, published 2005)
